Test results reported in publication PMC8596838, “Xylose‐Configured Cyclophellitols as Selective Inhibitors for Glucocerebrosidase” (Chembiochem, 2021).

Assays:
GBA = molecular target: T1, GBA (Homo sapiens, UniProt P04062); assay: Inhibition in intact HEK293T cells (24 h), read out by cABPP with ABP 10, GBA; format: cell-based; settings: for IC50: 24 h treatment, cABPP quantification, n=3
T1 construct: HEK293T cells that contain endogenous GBA; endogenous in cells; host or cells: HEK293T (ATCC CRL-3216) overexpressing GBA2 and GBA3
T1 sequence (P04062 40-536): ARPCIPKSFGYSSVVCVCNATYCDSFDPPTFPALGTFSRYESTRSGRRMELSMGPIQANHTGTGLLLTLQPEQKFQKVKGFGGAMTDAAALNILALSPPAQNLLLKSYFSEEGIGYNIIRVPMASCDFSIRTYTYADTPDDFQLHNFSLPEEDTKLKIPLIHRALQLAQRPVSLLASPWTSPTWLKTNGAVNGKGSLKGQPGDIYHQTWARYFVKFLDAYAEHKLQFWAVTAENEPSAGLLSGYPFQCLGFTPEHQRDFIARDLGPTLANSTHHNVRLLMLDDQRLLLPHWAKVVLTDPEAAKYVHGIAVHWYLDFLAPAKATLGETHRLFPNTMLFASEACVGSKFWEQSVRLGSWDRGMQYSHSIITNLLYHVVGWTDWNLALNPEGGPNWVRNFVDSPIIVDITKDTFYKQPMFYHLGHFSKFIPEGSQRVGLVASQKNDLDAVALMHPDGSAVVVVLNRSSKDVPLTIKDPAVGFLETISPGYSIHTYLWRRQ
Excerpt: (§1) We next examined the activity of 1 and 2 towards the three human β‐D‐glucosidase in intact HEK293T cells. […] It is noted that the GBA‐selectivity of both compounds is much improved in intact cells than in the in vitro system (Figure 2 and Table 1). This is especially true for compound 1, where an impressive 4‐logs of selectivity window is observed.
(§2) Figure 5 Inhibitory effect of β‐D‐xylo‐configured cyclophellitol 1 and cyclophellitol aziridine 2 on β‐glucosidases in intact HEK293T cells expressing GBA, GBA2 and GBA3. (A) Representative gel images of cABPP where cells were treated for 24 h with indicated inhibitor. Lysates were then prepared and labeled with fluorescent ABP 10. Fluorescently labeled proteins were visualized after SDS‐PAGE (1 set from n=3 replicates). (B) IC50 curves determined by cABPP labeling results. (C) Apparent IC50 values towards β‐glucosidases in intact HEK293T cells producing GBA, GBA2 and GBA3 were determined by the fluorescence quantification based on cABPP SDS‐PAGE results.
ABP labeling procedure: Glycosidases were labeled with excess fluorescent ABPs at optimum conditions. […] After ABP incubation, proteins were denatured by boiling the samples with 5× Laemmli buffer (50 % (v/v) 1 M Tris‐HCl, pH 6.8, 50 % (v/v) 100 % glycerol, 10 % (w/v) DTT, 10 % (w/v) SDS, 0.01 % (w/v) bromophenol blue) for 5 min at 98 °C, and separated by electrophoresis on 10 % (w/v) SDS‐PAGE gels running continuously at 90 V. Wet slab‐gels were scanned on fluorescence using the Typhoon FLA 9500 (GE Healthcare) at λEX 473 nm and λEM≥510 nm for green fluorescent ABP 8; and at λEX 635 nm and λEM≥665 nm for ABP 6, 9 and 10. ABP‐emitted fluorescence was quantified using ImageQuant software (GE Healthcare, Chicago, IL, USA) and curve‐fitted using Prism 8.0 (GraphPad Software). After fluorescence scanning, SDS‐PAGE gels were stained for total protein with Coomassie G250 and scanned on a ChemiDoc MP imager (Bio‐Rad, Hercules, CA, USA).[25] […]

GBA3 = molecular target: T2, GBA3 (Homo sapiens, UniProt Q9H227); assay: Inhibition in intact HEK293T cells (24 h), read out by cABPP with ABP 10, GBA3; format: cell-based; settings: for IC50: 24 h treatment, cABPP quantification, n=3; for GBA3/GBA ratio, intact cells: IC50 ratio, 24 h
T2 construct: expressed in transfected cells; host or cells: HEK293T (GBA/GBA2 KO background for the fluorogenic assay; endogenous-GBA background with GBA2 and GBA3 overexpressed for ABPP and intact-cell assays)
T2 sequence (Q9H227 1-469): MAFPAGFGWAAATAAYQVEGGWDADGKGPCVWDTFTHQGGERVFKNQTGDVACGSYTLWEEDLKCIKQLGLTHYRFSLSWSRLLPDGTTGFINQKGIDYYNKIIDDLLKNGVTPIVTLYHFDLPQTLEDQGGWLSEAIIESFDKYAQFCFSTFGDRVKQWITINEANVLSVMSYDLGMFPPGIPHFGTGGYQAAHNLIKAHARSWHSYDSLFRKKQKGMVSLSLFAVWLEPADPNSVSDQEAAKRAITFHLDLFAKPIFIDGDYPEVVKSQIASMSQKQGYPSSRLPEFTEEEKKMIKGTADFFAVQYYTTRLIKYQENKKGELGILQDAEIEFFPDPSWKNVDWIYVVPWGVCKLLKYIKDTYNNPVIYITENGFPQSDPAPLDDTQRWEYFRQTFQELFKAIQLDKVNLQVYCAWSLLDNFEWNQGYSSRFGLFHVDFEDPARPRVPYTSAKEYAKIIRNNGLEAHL
Excerpt: as §1, §2
ABP labeling procedure: Glycosidases were labeled with excess fluorescent ABPs at optimum conditions. ABP labeling was performed at 37 °C for 30 min for all materials (if not otherwise stated), in a total sample volume of 20–40 μL and 0.5–1 % DMSO concentration. GBA was labeled with 200 nM ABP 9 (pH 5.2, 0.1 % (v/v) Triton‐100, 0.2 % (w/v) sodium taurocholate), or labeled together with GBA2 using 200 nM β‐D‐glucose‐configured aziridine ABP 10 at pH 5.8, or labeling together with GBA2 and GBA3 using 200 nM β‐D‐glucose‐configured aziridine ABP 10 at pH 6.0. After ABP incubation, proteins were denatured by boiling the samples with 5× Laemmli buffer (50 % (v/v) 1 M Tris‐HCl, pH 6.8, 50 % (v/v) 100 % glycerol, 10 % (w/v) DTT, 10 % (w/v) SDS, 0.01 % (w/v) bromophenol blue) for 5 min at 98 °C, and separated by electrophoresis on 10 % (w/v) SDS‐PAGE gels running continuously at 90 V. Wet slab‐gels were scanned on fluorescence using the Typhoon FLA 9500 (GE Healthcare) at λEX 473 nm and λEM≥510 nm for green fluorescent ABP 8; and at λEX 635 nm and λEM≥665 nm for ABP 6, 9 and 10. ABP‐emitted fluorescence was quantified using ImageQuant software (GE Healthcare, Chicago, IL, USA) and curve‐fitted using Prism 8.0 (GraphPad Software). After fluorescence scanning, SDS‐PAGE gels were stained for total protein with Coomassie G250 and scanned on a ChemiDoc MP imager (Bio‐Rad, Hercules, CA, USA).[25]
Assessment of inhibitor activity in cultured cells: Confluent HEK293T stably expressing human GBA and GBA2 GBA3 overexpressing were cultured in 24‐well plates in triplicates with(out) inhibitors for 24 h at 37 °C with 7 % CO2. […]

SMILES	IC50 (GBA) [nM]	IC50 (GBA3) [nM]	GBA3/GBA ratio, intact cells (GBA3)	selectivity window for GBA in intact cells (GBA; 24 h) [logs]
O[C@@H]1[C@@H](O)[C@H](O)C[C@H]2N[C@@H]12 [compound 2, β‐D‐xylo‐Cyclophellitol aziridine]	42.2	48900 ± 12700	1159	
O[C@@H]1[C@@H](O)[C@H](O)C[C@H]2O[C@@H]12 [compound 1, xylo‐cyclophellitol]	5.71	> 100000	> 10000	4
